For assay [1], the system named is alveolar type II epithelial cells (T2 cells). Description: Inhibition of T2 cell adhesion to immobilized pseudomatrices by heparin treatment. In kind it is cell-based. The following applies: Nle used instead of Met. As to the method: Pseudomatrices prepared in Example 13 to which each cell adhesion peptide was bound (MBAC-peptide) was diluted in DMEM medium to the concentration of 1-10 μg/ml, poured into 96-wells by 100 μl each, and left still overnight in a CO2 incubator to be adsorbed and immobilized on the wells. Non-adsorbed MBAC-peptide was removed by rinsing well with DMEM medium. Next, 100 μl of DMEM in which 1 mg/ml of heparin was dissolved was poured into the wells, incubated for 2 hours to allow heparin to bind to the peptides. Control groups were treated with DMEM only. Heparin was removed after the treatment, and T2 cells suspended at the concentration of 6×10^5 cells/ml were seeded by 100 μl each. After 1-day serum-free culture, T2 cells were fixed with 100 μl of methanol for 5 minutes, and stained with 50 μl of 0.4% crystal violet for 30 minutes. Excessive staining was washed with water, and the number of adhering cells was counted based on the absorbance of cytoplasm (A595).

For assay [2] the test system is unchanged. Nature of the assay: Adhesion of T2 cells to pseudomatrix adsorbed/immobilized from DMEM and competitive inhibition by free peptides. The following applies: pseudomatrix 1-10 μg/ml in DMEM. In kind it is cell-based. On the procedure: 200 mg each of hydrophobic binding-adsorptive polymer, MBAC, MAST or MMAC were dispersed into water, and 1 N NaOH solution was added little by little to dissolve them completely. 50 mg of WSC (1-ethyl-3-(3-dimethylamino propyl)carbodiimide, hydrochloride) was added to the resulting solution, and the reaction was conducted for 2 hours. Subsequently, 20 mg of peptide was added, and the reaction was continued with stirring for 2 hours at room temperature. After the reaction was finished, the reactant was subjected to dialysis with water to remove alkaline and low molecules, and then freeze-dried to prepare a pseudomatrix of interest.
(§1) Each pseudomatrix prepared in Example 13 to which cell adhesion peptide was bound (MBAC-peptide) was diluted in DMEM medium to the concentration of 1-10 μg/ml, and the resultant solution was poured into a 96-well by 100 μl each, and left still overnight in a CO2 incubator to be adsorbed and immobilized on the wells. Non-adsorbed MBAC-peptides were removed by rinsing well with DMEM medium. Next, T2 cells suspended at the concentration of 6×10^5 cells/ml were seeded in the serum-free DMEM by 100 μl each. After 1-day serum-free culture, T2 cells were fixed with 100 μl of methanol for 5 minutes, and stained with 50 μl of 0.4% crystal violet for 30 minutes. Excessive staining was washed with water, and the number of adhering cells was counted based on the absorbance of cytoplasm (A595).
In the same manner as in Example 14, each pseudomatrix prepared in Example 13 to which cell adhesion peptide was bound (MAST-peptide) was adsorbed and immobilized on a 96-well, and T2 cells were seeded and cultured thereon.

The test system is the same in assay [3]. Description: Inhibition of T2 cell adhesion to immobilized pseudomatrix by treatment with polyclonal antibodies for the peptides. In kind it is cell-based. As to the method:
as §1, with “μg/ml,” for “μg/ml, and the resultant solution was”, “Next, 100 μl of antibodies diluted with serum-free DMEM to the concentration of 4-10 μg/ml was poured into a well, incubated for 2-4 hours to let the antibodies bind to the peptides. Normal IgG was used for control groups. Antibodies were removed after the treatment,” for “Next,”, “seeded” for “seeded in the serum-free DMEM”

For assay [4], the target named is adhesion receptor present on the cell surface of T2 cells (not named). Nature of the assay: cell-based or functional assay.

Where no end group is shown, it is not given here. [ ]: non-standard residue; d: D form. Nle = CCCC[C@H](N)C(=O)O

In the case of “MBAC-A4G82X: pseudomatrix: MBAC polymer reacted with A4G82X peptide (TLFLAHGRLVF[Nle]; also: peptide reacted with MBAC polymer (pseudomatrix))”, the “Cell adhesion ability of Nle pseudomatrix compared with immobilized Met peptide” value in assay [1] is recorded as “the same level of cell adhesion ability”. For the same molecule, the “Competitive inhibition of cell adhesion to pseudomatrix by free cell adhesion peptide” value in assay [2] is recorded as “inhibited by free A4G82 peptide”.

As for “MBAC-AG81.2X: pseudomatrix: MBAC polymer reacted with AG81.2X peptide (VKTEYIKRKAF[Nle]; also: peptide reacted with MBAC polymer (pseudomatrix))”, the “Cell adhesion ability of Nle pseudomatrix compared with immobilized Met peptide” value in assay [1] is listed as “the same level of cell adhesion ability”. The “Cell adhesion ability of immobilized pseudomatrix compared with coated FN” value in assay [3] (MBAC-peptide 1-10 μg/ml in DMEM) is recorded as “the same level of cell adhesion ability as in the case where FN was coated”. In addition, the “Inhibition of cell adhesion by treatment with antibodies for the peptides” value in assay [3] (antibodies 4-10 μg/ml, 2-4 hours) is on record as “specifically inhibited”.

In the case of “polymer-A5G73X: pseudomatrix: polymer (MBAC in FIG. 14) reacted with A5G73X peptide (RNRLHLS[Nle]LVRP; also: peptide reacted with MBAC polymer (pseudomatrix))”, in assay [1], the “Cell adhesion ability of Nle pseudomatrix compared with immobilized Met peptide” value is “the same level of cell adhesion ability”.

Take “polymer-AG76.8X: pseudomatrix: polymer (MBAC in FIG. 14) reacted with AG76.8X peptide (TLQLQEGRLHF[Nle]; also: peptide reacted with MBAC polymer (pseudomatrix))”: the “Cell adhesion ability of Nle pseudomatrix compared with immobilized Met peptide” value in assay [1] is reported as “the same level of cell adhesion ability”.

GRGDSP [GRGDSP (Gly-Arg-Gly-Asp-Ser-Pro)]: in assay [4], the competitive inhibition of T2 cell adhesion to immobilized MAST-GRGDSP by free GRGDSP peptide stood at 4 mg/mL and the competitive inhibition of T2 cell adhesion to immobilized MMAC-GRGDSP by free GRGDSP peptide was 1 to 4 mg/mL.

These data come from US8304238B2, “Cell culture medium and immobilized preparation of cell adhesion protein or peptide” (Nat'l Institute for Environmental Studies, priority 2003, dated 2012).
